# Values quoted from earlier work, collected in publication PMC3157551 (Bioconjugate chemistry, 2011).
substance,measurement,value
"avidin: avidin (Pierce-Thermo), 128 amino acid biotin-binding protein",dissociation half-time of biotin from avidin,89 days
